Experimental findings from ChEMBL document CHEMBL3507680, “University of Dundee, Gates Library screen for HepG2 cell viability” are described below.

A short description of the series: Human HepG2 cell viability assay in 384 well format. The format is toxicity, cell-based. Conditions: HepG2 cells, read-out: Inhibition. More on the design: dose 125 nL, time 70.5 hour; concentration not given beside the values.

In the case of `Cc1cnn(CCNCc2csc(-c3ncccn3)n2)c1`, the cytotoxicity at 70.5 h came to 18.5%.

`CCNc1cc2c(nn1)CCN(C(=O)c1ccnc(-n3ccnc3)c1)C2`: the cytotoxicity at 70.5 h is -6.16%.

As to `CCOCC(O)CN1CCN(C(=O)c2ccc(C)nc2)CC1` (stereo not drawn), the cytotoxicity at 70.5 h is 0.688%.

Take `COCC(c1cccc(C(F)(F)F)c1)N(C)C(=O)c1cnccn1` (stereo not drawn): the cytotoxicity at 70.5 h is -9.11%.

Turning to `CC(C)N(C(=O)CN(C)C1CCc2ccccc21)C(C)C` (stereo not drawn), the cytotoxicity at 70.5 h is -0.805%.

Take `Cc1cnn(CCNCc2csc(-c3ccsc3)n2)c1`: the cytotoxicity at 70.5 h was -6.72%.

As for `Cc1cnc(C(=O)NC(CN2CCCC2=O)c2ccccc2)cn1` (stereo not drawn), the cytotoxicity at 70.5 h is -1.21%.

Consider `CC(C)c1ccc(OCCC(=O)N2CCC(C(N)=O)CC2)cc1`, for which the cytotoxicity at 70.5 h is -4.09%.

In the case of `COc1c(CNCc2ccc(N(C)C)nc2)c(C)nn1C`, the cytotoxicity at 70.5 h was determined as 24.3%.

As to `Cc1nc(-c2ccsc2)ccc1C(=O)NCC(C)N1CCOCC1` (stereo not drawn), the cytotoxicity at 70.5 h is -4.37%.

As for `O=C(CN1CCC(c2ccccc2)C1)NC(=O)NCC(F)(F)F` (stereo not drawn), the cytotoxicity at 70.5 h is 21.4%.

Turning to `CC(C)c1ccc(OCCC(=O)N2CCCN(C(N)=O)CC2)cc1`, the cytotoxicity at 70.5 h is -1.87%.

Turning to `CCNc1cc2c(nn1)CCN(C(=O)c1ccsc1)C2`, the cytotoxicity at 70.5 h was -3.61%.

`CCc1nnc2n1CCN(CC(=O)Nc1cc(C)nn1C)C2`: the cytotoxicity at 70.5 h is -4.31%.

Turning to `Cc1nn(C)c(C)c1CC(=O)N1CCCN(c2cccnn2)CC1`, the cytotoxicity at 70.5 h was determined as 5.97%.

`Cc1noc(Cl)c1CC(=O)N1CCC(Nc2cccnn2)CC1`: the cytotoxicity at 70.5 h is -1.04%.

On to `CCNc1cc2c(nn1)CCN(C(=O)c1ccc(-n3cnnc3)cc1)C2`, for which the cytotoxicity at 70.5 h was -0.933%.

For the molecule `O=C(CSc1ccc(F)cc1F)NS(=O)(=O)c1ccc2c(c1)OCCO2`, the cytotoxicity at 70.5 h was -3.46%.

Turning to `CCNc1cc2c(nn1)CCN(C(=O)c1ccnc(C)n1)C2`, the cytotoxicity at 70.5 h was -2.85%.

As for `Cc1nc(C)n(CC2CCCN2Cc2cc(-c3cccs3)on2)n1` (stereo not drawn), the cytotoxicity at 70.5 h was -13.7%.

Consider `Cc1csc(N2CCCN(C(=O)C3(C#N)CCCC3)CC2)n1`, for which the cytotoxicity at 70.5 h was -8.33%.

For `Cc1cc(C)n(CC2CCCN2C(=O)CCc2ccco2)n1` (stereo not drawn), the cytotoxicity at 70.5 h was -14.5%.

With `CN(C)c1ccc(C(=O)N2CCCC(n3cccn3)C2)cn1` (stereo not drawn), the cytotoxicity at 70.5 h was 15%.

As to `Cc1nc(C)n(CC2CCCCN2Cc2nc(-c3ccoc3)no2)n1` (stereo not drawn), the cytotoxicity at 70.5 h was -11.8%.

`Cc1nc(CCNCc2c(C)nn(C)c2N2CCOCC2)cs1`: the cytotoxicity at 70.5 h was -0.903%.

For `Cc1cc(CN2CCN(C(=O)NC(C)c3cccnc3)CC2)no1` (stereo not drawn), the cytotoxicity at 70.5 h is -8.62%.

In the case of `CC(C(=O)NCc1ccnc(N(C)C)c1)n1cccn1` (stereo not drawn), the cytotoxicity at 70.5 h was -3.71%.

For `CN1CCN(c2cc(CNC(=O)Cn3cccn3)ccn2)CC1`, the cytotoxicity at 70.5 h is 13.6%.

As to `O=C(c1ccc(N2CCOCC2)nc1)N1CCCC(n2cccn2)C1` (stereo not drawn), the cytotoxicity at 70.5 h was -13.9%.

For `CCOc1ccccc1C(CC(=O)Nc1ccccn1)NC(C)=O` (stereo not drawn), the cytotoxicity at 70.5 h was -5.35%.

In the case of `COC(=O)c1cc(C(=O)N2CCN(C)CC2)n(-c2ccccc2)n1`, the cytotoxicity at 70.5 h is -6.12%.

Take `Cc1nc(C)n(CC2CCCN2Cc2nc(-c3ccco3)no2)n1` (stereo not drawn): the cytotoxicity at 70.5 h was -4.04%.

Take `COC(=O)c1cc(C(=O)N2CCOC(C)(C)C2)n(-c2ccccc2)n1`: the cytotoxicity at 70.5 h is -10.1%.

For `Cc1cc(C)n(CC2CCCN2C(=O)CCc2nccs2)n1` (stereo not drawn), the cytotoxicity at 70.5 h is -7.22%.

For the molecule `Cc1cnn(CCNCc2csc(-c3ccc(C)o3)n2)c1`, the cytotoxicity at 70.5 h turned out to be 19.9%.

As for `COCCCN1CCC(C(=O)c2cc(F)ccc2F)CC1`, the cytotoxicity at 70.5 h was -0.37%.

Turning to `Cc1cnn(CCNCc2nc(-c3ccccn3)no2)c1`, the cytotoxicity at 70.5 h is -6.05%.

For `CC(=O)N1CCCN(C(=O)NCc2cccnc2OC(C)C)CC1`, the cytotoxicity at 70.5 h is -5.61%.

Consider `COC(=O)CN1CCC(C(=O)c2cc(F)ccc2F)CC1`, for which the cytotoxicity at 70.5 h was -3.39%.

`COCCN1CCC(C(=O)c2cc(F)ccc2F)CC1`: the cytotoxicity at 70.5 h was -2.7%.

Take `CCc1nc(CNCCn2cc(C)cn2)no1`: the cytotoxicity at 70.5 h was -5.71%.

With `CCc1nc(C2CCCN2C(=O)c2cc3c(s2)CCC3)no1` (stereo not drawn), the cytotoxicity at 70.5 h was -2.7%.

Take `NC(=O)C1CCN(C(=O)NCc2cccnc2OC2CCCC2)C1` (stereo not drawn): the cytotoxicity at 70.5 h was -5.81%.

For `CCOc1ccccc1OC1CCN(C(=O)c2c[nH]nn2)CC1`, the cytotoxicity at 70.5 h was -0.281%.

On to `CCOc1ccccc1OC1CCN(C(=O)c2cnns2)CC1`, for which the cytotoxicity at 70.5 h was -3.73%.

For `Cc1ncccc1CNC1CCCN(Cc2noc(C3CC3)n2)C1` (stereo not drawn), the cytotoxicity at 70.5 h came to 0.441%.

Regarding `CCc1nc(C2CCCN2CC(=O)N2CCCc3ccccc32)no1` (stereo not drawn), the cytotoxicity at 70.5 h amounted to 22%.

Take `O=C(N1CCCCC1)N1CCN(CC(O)c2ccccc2)CC1` (stereo not drawn): the cytotoxicity at 70.5 h was -3.61%.

With `CC1CN(C(=O)c2ccn(-c3cccc(Cl)c3)n2)CCO1` (stereo not drawn), the cytotoxicity at 70.5 h was -6.58%.

Take `CCc1nnc2n1CCN(C(=O)c1cc(Br)c[nH]1)C2`: the cytotoxicity at 70.5 h was -5.11%.

As to `c1csc(-c2nc(CNC3CCc4ncnn4C3)co2)c1` (stereo not drawn), the cytotoxicity at 70.5 h was -10%.

On to `COc1cccc(S(=O)(=O)NC(=O)COc2c(C)cccc2C)c1`, for which the cytotoxicity at 70.5 h was -9.64%.

For `CCc1nnc2n1CCN(C(=O)c1cc3cc(F)ccc3[nH]1)C2`, the cytotoxicity at 70.5 h worked out at 0.76%.

As to `Cc1ccc(C(=O)Nc2cc(C(C)C)n[nH]2)cn1`, the cytotoxicity at 70.5 h came to 31.4%.

As to `CCc1csc(C2CCCN(C(=O)c3ccc(OC)nn3)C2)n1` (stereo not drawn), the cytotoxicity at 70.5 h was -9.56%.

Regarding `CCc1nc(C2CCCN2CC(=O)Nc2nncs2)no1` (stereo not drawn), the cytotoxicity at 70.5 h was -2.48%.

With `CC(C)c1cc(NC(=O)c2ccc(NC3CC3)nc2)[nH]n1`, the cytotoxicity at 70.5 h was -5.73%.

Turning to `CC1CN(C)CCN1C(=O)c1ccn(-c2cccc(Cl)c2)n1` (stereo not drawn), the cytotoxicity at 70.5 h was -13.2%.

Turning to `CC(C)c1nc(C2CCCN2Cc2ccno2)no1` (stereo not drawn), the cytotoxicity at 70.5 h is -12%.

In the case of `CC(C)c1nc(C2CCCN2Cc2ccccc2C#N)no1` (stereo not drawn), the cytotoxicity at 70.5 h is 5.38%.

In the case of `Cc1nc(CN(C)C2CCCN(c3cccnn3)C2)no1` (stereo not drawn), the cytotoxicity at 70.5 h is 17.1%.

On to `CCn1cc(CN2CCCN(C(=O)CCc3ccncc3)CC2)cn1`, for which the cytotoxicity at 70.5 h was 25.1%.

For `COC(=O)CCc1c(C)nc2cc(O)nn2c1C`, the cytotoxicity at 70.5 h was -2.64%.

For `CC(C)C(Sc1nnnn1C1CC1)C(=O)NCc1cccnc1` (stereo not drawn), the cytotoxicity at 70.5 h was -7.01%.

On to `CCNC(=O)CCc1c(C)nc2cc(O)nn2c1C`, for which the cytotoxicity at 70.5 h was -5%.

Consider `Cc1cc(CNc2ccc(C(=O)N3CCCC(C)C3)cc2C)no1` (stereo not drawn), for which the cytotoxicity at 70.5 h was -16.5%.

With `COc1ccc(NC(=O)CCc2c(C)nc3cc(O)nn3c2C)cn1`, the cytotoxicity at 70.5 h was -2.2%.

Regarding `CCn1cnnc1C1CCN(C(=O)c2cccc3c2ccn3C)CC1`, the cytotoxicity at 70.5 h stood at 6.06%.

Regarding `CC(=O)N(C)c1nc(CN2CCCCC2Cn2cncn2)cs1` (stereo not drawn), the cytotoxicity at 70.5 h is -6.38%.

As to `CCNC(=O)N(C)C(c1cccc(F)c1)c1ccccn1` (stereo not drawn), the cytotoxicity at 70.5 h was -14%.

In the case of `Cc1cnn(C2CN(Cc3nc(-c4ccco4)no3)C2)c1`, the cytotoxicity at 70.5 h was -10.1%.

Take `Cc1oc(C(=O)O)cc1S(=O)(=O)Nc1ccc(Cl)c(F)c1`: the cytotoxicity at 70.5 h is -6.62%.

Consider `CCOc1ccc(Cl)c(C(=O)N2CCN(CCO)CC2)n1`, for which the cytotoxicity at 70.5 h is -6.15%.

In the case of `CCn1cnnc1CNC(=O)N1CCN(c2nc(C)c(C)s2)CC1`, the cytotoxicity at 70.5 h is -3.66%.

Regarding `CCC(C)(C)NC(=O)CN(C)C(c1cccc(F)c1)c1ccccn1` (stereo not drawn), the cytotoxicity at 70.5 h amounted to 0.639%.

On to `Cc1cccc(-c2noc(CN3CC(n4cc(C)cn4)C3)n2)c1`, for which the cytotoxicity at 70.5 h was -5.31%.

On to `CC(C)C(Sc1nnc(C2CC2)n1C1CC1)C(=O)NCc1cccnc1` (stereo not drawn), for which the cytotoxicity at 70.5 h is -8.64%.

With `CN(Cc1ccsc1)C(=O)c1cccc(S(=O)(=O)NC(C)(C)C)c1`, the cytotoxicity at 70.5 h was -2.95%.

Consider `COc1ccc(-c2nc(CN3CCN(CCO)CC3)co2)cc1`, for which the cytotoxicity at 70.5 h was 30.3%.

Turning to `C=C(C)COCCNC(=O)C1CCCN1C(C)=O` (stereo not drawn), the cytotoxicity at 70.5 h was -13.6%.

In the case of `CC(C)OCCCNC(=O)CS(=O)(=O)Cc1ccc(Cl)c(Cl)c1`, the cytotoxicity at 70.5 h is -9.73%.

For `CC(C)(C)c1noc(CN2CCN(C(=O)c3cccs3)CC2)n1`, the cytotoxicity at 70.5 h was -12.1%.

In the case of `COc1ncccc1NC(=O)N(Cc1ccc(C)o1)C1CC1`, the cytotoxicity at 70.5 h was -9.49%.

As to `CCN(C(=O)Nc1cccnc1OC)C1CC1`, the cytotoxicity at 70.5 h is -9.27%.

Take `Cc1cccnc1NC(=O)NC(C)Cn1cccn1` (stereo not drawn): the cytotoxicity at 70.5 h is -7.34%.

As to `CCN(Cc1ccc2c(c1)OCCO2)S(=O)(=O)N(C)C(C)C`, the cytotoxicity at 70.5 h was -7.62%.

With `CCn1c(C(=O)N2CCN(C(=O)NC(C)C)CC2)cc2ccccc21`, the cytotoxicity at 70.5 h is -9.47%.

As to `COc1c(C)cnc(CN2CCC(C(=O)N(C)C)CC2)c1C`, the cytotoxicity at 70.5 h is -23.8%.

As to `Fc1ccc(-c2nnc(CN3CCCC3Cn3cncn3)o2)cc1` (stereo not drawn), the cytotoxicity at 70.5 h was -8.54%.

In the case of `CCn1c(C(=O)N2CCN(CC(C)O)CC2)cc2ccccc21` (stereo not drawn), the cytotoxicity at 70.5 h came to 21.6%.

For the molecule `Fc1ccc(-c2nnc(CN3CCOC(Cn4cncn4)C3)o2)cc1` (stereo not drawn), the cytotoxicity at 70.5 h was -28.7%.

On to `Cc1cc(C(=O)N2CCCCC2c2nc(C)cs2)[nH]n1` (stereo not drawn), for which the cytotoxicity at 70.5 h is -7.87%.

In the case of `COc1ccc(C(=O)N2CCCCC2c2nc(C)cs2)nn1` (stereo not drawn), the cytotoxicity at 70.5 h is 23.8%.

Take `c1cnnc(NCC2CN(CCN3CCCCC3)CCO2)c1` (stereo not drawn): the cytotoxicity at 70.5 h is -11.2%.

Turning to `O=C(CS(=O)(=O)CC1CCCCC1)NC1CCCCNC1=O` (stereo not drawn), the cytotoxicity at 70.5 h is -14.4%.

As to `OCCN1CCN(Cc2coc(-c3ccc(Cl)cc3)n2)CC1`, the cytotoxicity at 70.5 h was -11.8%.

On to `CC(C(=O)NCCCN1CCCCCC1=O)n1cncn1` (stereo not drawn), for which the cytotoxicity at 70.5 h is -0.359%.

Consider `CC(=O)NCCc1ccc(C(=O)N2CCCC2c2cnn(C)c2)cc1` (stereo not drawn), for which the cytotoxicity at 70.5 h was 15.1%.

Regarding `Cn1cnnc1C1CCCN(C(=O)NCc2cc[nH]n2)C1` (stereo not drawn), the cytotoxicity at 70.5 h was 18.7%.

In the case of `CN(Cc1cscn1)C1CCCN(Cc2noc(C3CC3)n2)C1` (stereo not drawn), the cytotoxicity at 70.5 h stood at 22.4%.

As to `O=C(NCCn1ccnc1)c1cccc(F)c1`, the cytotoxicity at 70.5 h is -11.3%.

As to `CC(C)c1nn(C)c(Cl)c1CNCc1ccc(N(C)C)nc1`, the cytotoxicity at 70.5 h was -2.07%.

Regarding `COc1cccc(CNC(C)Cn2cccn2)c1OC` (stereo not drawn), the cytotoxicity at 70.5 h came out at 2.73%.
